Data taken from patent US6596258B1, “Method of obtaining extracellular and intracellular pH images and spectra by magnetic resonance using extrinsic indicators containing 1H or 19F” (Universidad Nacional de Educacion a Distancia, priority 1997, dated 2003).

What was measured:
[1] = Kinetics of tissue uptake after intravenous injection, 1H NMR of perchloric acid organ extracts; conditions: Wistar rats, 1 mmol intravenous
[2] = system: NIH 3T3 mouse fibroblasts; test: Toxicity in cell culture (cell survival after 72 h incubation); conditions: for Cell survival (average optical density, an index of cell number): NIH 3T3, mean±SD of four determinations
Method: NIH 3T3 mouse fibroblasts were grown in Dulbecco modified essential medium (DMEM) supplemented with 10% fetal calf serum (FCS, Hyclone, Logan, Utah, USA).
Results represent the mean±SD of four determinations from different culture dishes at each concentration.

[3] = Plasma kinetics after intravenous (jugular vein) injection, 1H NMR of plasma; conditions: male Wistar rats
Male Swiss albino mice = test: Toxicity (LD50) in intact animals, intraperitoneal, method of Miller and Tainter; conditions: doses as high as 3 g/Kg of body weight
Excerpt: At least seven different doses, each one of then administered to six mice, which were kept in different cages, were used for each compound.

[4] = injection into right jugular vein

Structure (SMILES)	Concentration reached in brain [1]	Concentration reached in heart [1]	Concentration reached in kidney [1]	Concentration reached in liver [1]	Concentration reached in skeletal muscle [1]	Time of peak concentration in kidney [1]	Time of peak concentration in skeletal muscle [1]	Cell survival (average optical density, an index of cell number) ([2]; 1.0 mM compound)	Cell survival (average optical density, an index of cell number) ([2]; 5.0 mM compound)	Cell survival (average optical density, an index of cell number) ([2]; 10.0 mM compound)	Cell survival (average optical density, an index of cell number) ([2]; 20.0 mM compound)	Toxicity in cell culture (in words) ([2]; NIH 3T3, 0 to 20 mM)	Clearance from plasma, t1/2 [3, 4]	Highest concentration in plasma [3, 4]	Time after injection at which highest plasma concentration was attained [3, 4]	Signs of toxicity during the pharmacokinetic experiment ([3]; intravenous injection)	Toxicity in intact animals (in words) (Male Swiss albino mice)
CCOC(=O)CC(C(=O)O)n1ccnc1 (racemic) [Compound 9, (±)-3-(etoxycarbonyl)-2-imidazol-1-ilpropionic acid]	absent	< 0.5 μmol/g of body weight	13.9 μmol/g of body weight	< 0.2 μmol/g of body weight	5.8 μmol/g of body weight	10 min	20 min	1.68 ± 0.04	1.38 ± 0.06	1.52 ± 0.13	1.54 ± 0.09	did not exhibit any toxicity	6 min	6.6 mM	1 min	No signs of toxicity were detected	did not exhibit any toxicity
c1c[nH]cn1 [Compound 1, Imidazol]	–	–	12.1 μmol/g of body weight	–	5.3 μmol/g of body weight	30 min	10 to 20 min	–	–	–	–	–	–	–	–	–	–
